# Results taken from patent US20250115607A1, “PYRIDINE DERIVATIVES” (Hoffmann-La Roche Inc., priority 2022, published 2025).
# Columns and labels:
# Type in all cases: biochemical
# SIK1 = SIK1 (Homo sapiens (Human), UniProt P57059); assay: Phosphorylation assay SIK1 (RapidFire mass spectrometry); settings: 5 nM SIK1, CHK-peptide, ATP, 30 min pre-incubation, 45 min incubation; read-out: SIK1 RF IC50
# Description: (§1) In the presence of SIK2 (resp. SIK1 or SIK3) and ATP the CHK-peptide ([…] with C-terminal arginine amide modification) were phosphorylated at one of the four feasible serine's. Only one phosphorylation is observed under the assay conditions. 60 nl of each compound dilution series (12 point; dilution factor 3, generally 30 μM to 170 pM) in DMSO were transferred by acoustic dispensing to the assay plate and 30 minutes pre-incubated (ambient temperature) after the addition of 5 μl SIK1 (5 nM) resp. 5 μl SIK2 (0.5 nM) or 7 μl SIK3 (1.5 nM) in assay-buffer (12.5 mM HEPES (pH 7.0), 10 mM magnesium acetate, 0.005% BSA). 10 μM CHK-peptide solution and 5 μl of 100 μM ATP for SIK1 & SIK2 resp. 3 μl for SIK3 in assay-buffer were added and incubated ambient for 45 minutes. 40 μl of 0.125% formic acid in water were added to quench the reaction. RapidFire (RF) Mass Spectrometry was utilized for data generation as described below. The multiple charged species (3-5 charges) for the phosphorylated and non-phosphorylated form measured by MRM (Multiple Reaction Monitoring; API5000 or 6500+) or EIC (Extracted Ion Current; QToF) were summed up and the ratio calculated (sum phosphorylated species/sum all species) for data evaluation. Normalization was performed by Genedata software based on the non-inhibition control DMSO and the commercially available STK inhibitor @1 μM YKL-05-099 (CAS number 1936529-65-5). The results of the assay are expressed in half-maximal inhibitory concentrations (IC50s) and are summarized below in Table 1.
# (§2) Samples were aspirated by vacuum for max. 600 ms and loaded to C4-cartridge (Agilent; #G9203A) for 3000 ms@1.5 ml/min with 0.1% formic acid in water. Afterwards samples were transferred to the API5000 (API6500+) or QToF mass spectrometer for 4000 ms@1.25 ml/min with 90% acetonitrile; 10% water; 0.007% TFA; 0.093 formic acid. The cartridge was reconditioned for additional 500 ms with 0.1% formic acid in water.
# (§3) All MS analyses using the following MS-setup in MRM mode: Electrospray positive; Ion Spray Voltage: 4000V; Temperature: 550° C.; Collision Gas: 5; Curtain Gas: 15; Gas 1: 40; Gas 2: 42; EP: 10. DP=declustering potential; CE=collision energy; CXP=cell exit potential.
# (§4) All MS analyses using the following MS-setup in Mode MS: Dual AJS Electrospray positive; VCap: 3000V; Drying & Sheath gas: 340° C.@81/min; Nebulizer: 60 psig; Nozzle Voltage: 2000V; Fragmentor: 130V; Skimmer: 35V; Oct1 RF Vpp: 700V; Ref masses on@5 spectra/s
# SIK2 = SIK2 (Homo sapiens (Human), UniProt Q9H0K1); assay: Phosphorylation assay SIK2 (RapidFire mass spectrometry); settings: 0.5 nM SIK2, CHK-peptide, ATP, 30 min pre-incubation, 45 min incubation; read-out: SIK2 RF IC50
# Sequence of SIK2 (Q9H0K1 whole entry): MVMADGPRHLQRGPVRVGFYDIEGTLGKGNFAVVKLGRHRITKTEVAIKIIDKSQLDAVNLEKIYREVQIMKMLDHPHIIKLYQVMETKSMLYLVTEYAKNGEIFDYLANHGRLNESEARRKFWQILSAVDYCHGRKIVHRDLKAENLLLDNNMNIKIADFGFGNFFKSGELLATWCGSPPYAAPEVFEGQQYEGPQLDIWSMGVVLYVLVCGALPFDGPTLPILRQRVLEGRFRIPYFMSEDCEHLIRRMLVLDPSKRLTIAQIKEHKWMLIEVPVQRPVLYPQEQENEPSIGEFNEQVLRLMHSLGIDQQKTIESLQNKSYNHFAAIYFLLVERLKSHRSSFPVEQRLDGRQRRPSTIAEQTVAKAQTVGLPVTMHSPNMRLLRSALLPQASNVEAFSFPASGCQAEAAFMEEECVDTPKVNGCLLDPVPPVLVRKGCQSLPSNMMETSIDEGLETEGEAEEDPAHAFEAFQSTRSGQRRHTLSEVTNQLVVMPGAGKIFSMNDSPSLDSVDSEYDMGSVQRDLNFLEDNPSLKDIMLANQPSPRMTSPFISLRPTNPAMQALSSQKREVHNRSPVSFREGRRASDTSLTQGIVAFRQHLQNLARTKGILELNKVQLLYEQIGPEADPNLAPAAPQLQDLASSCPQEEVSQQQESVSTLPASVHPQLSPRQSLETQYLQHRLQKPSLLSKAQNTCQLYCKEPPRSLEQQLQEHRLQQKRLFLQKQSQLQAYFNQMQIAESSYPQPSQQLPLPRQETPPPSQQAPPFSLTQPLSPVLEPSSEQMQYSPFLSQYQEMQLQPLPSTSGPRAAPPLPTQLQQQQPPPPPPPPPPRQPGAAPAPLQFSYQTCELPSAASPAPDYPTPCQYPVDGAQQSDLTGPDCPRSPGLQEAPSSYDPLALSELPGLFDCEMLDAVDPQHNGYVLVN
# Description: as §1, §2, §3, §4
# SIK3 = SIK3 (Homo sapiens (Human), UniProt Q9Y2K2); assay: Phosphorylation assay SIK3 (RapidFire mass spectrometry); settings: 1.5 nM SIK3, CHK-peptide, ATP, 30 min pre-incubation, 45 min incubation; read-out: SIK3 RF IC50
# Sequence of SIK3 (Q9Y2K2 whole entry): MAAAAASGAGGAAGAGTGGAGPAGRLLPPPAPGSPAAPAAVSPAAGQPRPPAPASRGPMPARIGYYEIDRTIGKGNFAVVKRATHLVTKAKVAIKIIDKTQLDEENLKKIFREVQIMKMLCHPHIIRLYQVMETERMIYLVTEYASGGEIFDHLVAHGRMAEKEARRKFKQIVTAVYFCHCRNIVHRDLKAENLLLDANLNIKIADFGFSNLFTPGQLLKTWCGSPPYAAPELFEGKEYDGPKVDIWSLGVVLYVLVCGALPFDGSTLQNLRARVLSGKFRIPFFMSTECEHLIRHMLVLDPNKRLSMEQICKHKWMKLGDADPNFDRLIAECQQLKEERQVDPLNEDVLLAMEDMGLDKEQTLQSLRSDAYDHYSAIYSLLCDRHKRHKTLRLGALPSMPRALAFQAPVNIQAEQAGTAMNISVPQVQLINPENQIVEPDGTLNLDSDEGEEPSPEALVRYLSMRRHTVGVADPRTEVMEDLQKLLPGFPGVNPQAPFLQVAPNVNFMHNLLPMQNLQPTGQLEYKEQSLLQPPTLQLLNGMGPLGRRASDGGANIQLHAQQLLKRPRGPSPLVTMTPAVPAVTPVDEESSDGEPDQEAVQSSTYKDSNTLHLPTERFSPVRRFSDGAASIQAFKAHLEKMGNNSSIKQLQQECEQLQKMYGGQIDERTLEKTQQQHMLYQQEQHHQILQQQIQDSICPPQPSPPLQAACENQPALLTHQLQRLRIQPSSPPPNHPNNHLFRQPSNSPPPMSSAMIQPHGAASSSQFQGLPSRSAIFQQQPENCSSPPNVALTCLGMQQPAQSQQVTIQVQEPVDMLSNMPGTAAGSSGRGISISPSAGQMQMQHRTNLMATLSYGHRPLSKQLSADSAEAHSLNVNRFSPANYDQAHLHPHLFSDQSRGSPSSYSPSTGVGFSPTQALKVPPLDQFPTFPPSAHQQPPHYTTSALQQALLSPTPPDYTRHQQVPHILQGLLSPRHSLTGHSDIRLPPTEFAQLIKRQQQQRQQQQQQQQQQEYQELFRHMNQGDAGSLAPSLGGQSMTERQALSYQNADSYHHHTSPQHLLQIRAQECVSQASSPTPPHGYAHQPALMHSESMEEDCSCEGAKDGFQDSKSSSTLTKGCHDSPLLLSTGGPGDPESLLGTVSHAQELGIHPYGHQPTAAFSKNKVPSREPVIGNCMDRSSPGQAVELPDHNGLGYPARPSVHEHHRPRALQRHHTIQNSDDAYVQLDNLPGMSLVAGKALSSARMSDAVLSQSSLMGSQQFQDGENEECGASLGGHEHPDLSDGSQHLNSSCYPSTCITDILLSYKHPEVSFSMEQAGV
# Description: as §1, §2, §3, §4
# Sequence of SIK1 (P57059 whole entry): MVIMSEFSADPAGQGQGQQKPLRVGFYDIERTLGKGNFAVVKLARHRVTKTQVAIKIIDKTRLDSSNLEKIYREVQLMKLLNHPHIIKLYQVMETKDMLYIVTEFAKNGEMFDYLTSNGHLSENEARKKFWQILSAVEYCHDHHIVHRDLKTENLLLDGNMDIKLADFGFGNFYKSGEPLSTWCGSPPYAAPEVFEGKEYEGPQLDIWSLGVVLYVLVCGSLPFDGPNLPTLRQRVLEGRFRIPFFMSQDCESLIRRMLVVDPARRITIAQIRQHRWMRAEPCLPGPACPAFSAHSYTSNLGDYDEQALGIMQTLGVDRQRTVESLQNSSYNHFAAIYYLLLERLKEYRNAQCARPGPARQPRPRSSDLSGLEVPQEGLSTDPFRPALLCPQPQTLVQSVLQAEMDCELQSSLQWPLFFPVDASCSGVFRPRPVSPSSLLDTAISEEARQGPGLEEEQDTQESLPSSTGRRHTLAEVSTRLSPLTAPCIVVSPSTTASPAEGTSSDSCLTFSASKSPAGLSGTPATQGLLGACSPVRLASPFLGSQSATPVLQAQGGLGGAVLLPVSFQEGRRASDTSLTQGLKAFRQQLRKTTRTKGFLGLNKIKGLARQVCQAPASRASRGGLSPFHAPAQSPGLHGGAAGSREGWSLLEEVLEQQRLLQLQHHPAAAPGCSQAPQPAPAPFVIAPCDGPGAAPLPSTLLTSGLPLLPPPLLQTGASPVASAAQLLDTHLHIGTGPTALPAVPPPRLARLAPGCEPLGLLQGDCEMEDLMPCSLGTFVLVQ
IC50 (SIK1) [nM],IC50 (SIK2) [nM],IC50 (SIK3) [nM],SMILES
366,5,3,"Cc1ccc(Nc2cc3ncn(-c4ccc(C(C)O)c(-n5nc(C#N)cc5C)n4)c3cn2)nn1 (stereo not drawn) [Example 2, 1-[3-(1-Hydroxyethyl)-6-[6-[(6-methylpyridazin-3-yl)amino]imidazo[4,5-c]pyridin-3-yl]-2-pyridyl]-5-methyl-pyrazole-3-carbonitrile]"
17400,2540,3290,"CC(=O)c1ccc(-n2cnc3cc(N4CCOc5cc(C)nnc54)ncc32)nc1-n1nc(C#N)cc1C [Example 6, 1-[3-Acetyl-6-[6-(3-methyl-6,7-dihydropyridazino[4,3-b][1,4]oxazin-8-yl)imidazo[4,5-c]pyridin-3-yl]-2-pyridyl]-5-methyl-pyrazole-3-carbonitrile]"
879,16,7,"Cc1ccc(Nc2cc3ncn(-c4ccc(C(C)O)c(-n5nc(C(F)F)cc5C)n4)c3cn2)nn1 (stereo not drawn) [Example 7, 1-[2-[3-(difluoromethyl)-5-methyl-pyrazol-1-yl]-6-[6-[(6-methylpyridazin-3-yl)amino]imidazo[4,5-c]pyridin-3-yl]-3-pyridyl]ethanol]"
396,3,3,"Cc1ccc(Nc2cc3ncn(-c4ccc(C(C)O)c(-c5cn(CC(F)(F)F)nc5C)n4)c3cn2)nn1 (stereo not drawn) [Example 4, 1-[6-[6-[(6-Methylpyridazin-3-yl)amino]imidazo[4,5-c]pyridin-3-yl]-2-[3-methyl-1-(2,2,2-trifluoroethyl)pyrazol-4-yl]-3-pyridyl]ethanol]"
78,22,22,"Cc1ccc(Nc2cc3ncn(-c4ccc(C(C)O)c(-n5nc(C#N)cc5C)n4)c3cn2)cn1 (stereo not drawn) [Example 3, 1-[3-(1-Hydroxyethyl)-6-[6-[(6-methyl-3-pyridyl)amino]imidazo[4,5-c]pyridin-3-yl]-2-pyridyl]-5-methyl-pyrazole-3-carbonitrile]"
4520,42,121,"CC(=O)c1ccc(-n2cnc3cc(Nc4ccc(C)nn4)ncc32)nc1-n1nc(C#N)cc1C [Example 1, 1-[3-Acetyl-6-[6-[(6-methylpyridazin-3-yl)amino]imidazo[4,5-c]pyridin-3-yl]-2-pyridyl]-5-methyl-pyrazole-3-carbonitrile]"
